Assay [1] deals with YES1 (Homo sapiens (Human), UniProt P07947). Nature of the assay: SelectScreen Kinase Profiling Services commercial assay (ThermoFisher), YES1. It counts as biochemical.
The target of assay [2] is SRC (Homo sapiens (Human), UniProt P12931). Briefly: SelectScreen Kinase Profiling Services commercial assay (ThermoFisher), SRC. It counts as biochemical.
Chain of SRC (P12931 whole entry): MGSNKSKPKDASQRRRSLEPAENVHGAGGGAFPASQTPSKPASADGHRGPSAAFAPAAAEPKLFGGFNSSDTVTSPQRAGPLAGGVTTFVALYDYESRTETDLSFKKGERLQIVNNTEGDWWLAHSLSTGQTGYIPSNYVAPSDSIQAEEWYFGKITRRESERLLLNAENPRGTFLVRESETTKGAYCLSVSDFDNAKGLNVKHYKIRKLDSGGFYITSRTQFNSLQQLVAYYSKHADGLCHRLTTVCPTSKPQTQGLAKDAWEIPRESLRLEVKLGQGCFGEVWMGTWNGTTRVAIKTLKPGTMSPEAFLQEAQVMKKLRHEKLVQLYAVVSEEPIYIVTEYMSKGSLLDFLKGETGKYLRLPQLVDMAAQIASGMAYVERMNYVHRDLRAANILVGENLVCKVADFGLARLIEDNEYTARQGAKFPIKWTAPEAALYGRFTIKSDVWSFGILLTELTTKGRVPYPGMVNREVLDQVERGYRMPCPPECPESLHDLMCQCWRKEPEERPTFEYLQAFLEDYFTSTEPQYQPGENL

Chain of YES1 (P07947 whole entry): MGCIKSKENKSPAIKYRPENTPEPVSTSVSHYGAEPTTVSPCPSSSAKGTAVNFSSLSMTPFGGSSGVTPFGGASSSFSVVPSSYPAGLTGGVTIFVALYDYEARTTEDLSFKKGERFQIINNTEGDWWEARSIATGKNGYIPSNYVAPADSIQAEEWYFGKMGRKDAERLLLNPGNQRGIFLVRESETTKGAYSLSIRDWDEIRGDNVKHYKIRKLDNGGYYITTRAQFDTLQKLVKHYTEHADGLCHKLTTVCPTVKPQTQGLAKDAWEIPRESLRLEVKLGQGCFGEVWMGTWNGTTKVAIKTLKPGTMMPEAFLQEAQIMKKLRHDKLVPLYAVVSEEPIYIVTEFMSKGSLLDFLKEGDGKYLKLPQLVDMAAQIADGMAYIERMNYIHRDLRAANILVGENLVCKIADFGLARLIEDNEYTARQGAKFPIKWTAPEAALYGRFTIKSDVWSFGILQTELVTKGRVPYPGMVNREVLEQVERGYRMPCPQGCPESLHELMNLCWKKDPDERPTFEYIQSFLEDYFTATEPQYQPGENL

In the case of `C=CC(=O)Nc1ccccc1Nc1nc(Nc2ccc(N3CCN(C)CC3)cc2)ncc1CC` [Compound 2, N-{2-[(5-ethyl-2-{[4-(4-methylpiperazin-1-yl)phenyl]amino}pyrimidin-4-yl)amino]phenyl}prop-2-enamide], the IC50 in assay [1] and in assay [2] was 1 to 10 nM each time. As to `C=CC(=O)Nc1ccccc1Nc1nc(Nc2ccc(N3CCN(C)CC3)cc2)ncc1C` [Compound 4, N-{2-[(5-methyl-2-{[4-(4-methylpiperazin-1-yl)phenyl]amino}pyrimidin-4-yl)amino]phenyl}prop-2-enamide], the IC50 in assay [1] and in assay [2] was 1 to 10 nM throughout.

In the case of `C=CC(=O)Nc1ccccc1Nc1nc(Nc2ccc(N3CCN(C)CC3)cc2)ncc1-c1cccs1` [Compound 6, N-(2-((2-((4-(4-methylpiperazin-1-yl)phenyl)amino)-5-(thiophen-2-yl)pyrimidin-4-yl)amino)phenyl)acrylamide], the IC50 in assay [1] and in assay [2] was 1 to 10 nM in each case. In the case of `C=CC(=O)Nc1ccccc1Nc1nc(Nc2ccc(N3CCN(C)CC3)cc2)ncc1-c1ccc(OC)nc1` [Compound 9, N-(2-((5-(6-methoxypyridin-3-yl)-2-((4-(4-methylpiperazin-1-yl)phenyl)amino)pyrimidin-4-yl)amino)phenyl)acrylamide], the IC50 in assay [1] and in assay [2] was 1 to 10 nM throughout. On to `C=CC(=O)Nc1ccccc1Nc1nc(Nc2ccc(N3CCN(C)CC3)cc2)nc2ccsc12` [Compound 11, N-{2-[(2-{[4-(4-methylpiperazin-1-yl)phenyl]amino}thieno[3,2-d]pyrimidin-4-yl)amino]phenyl}prop-2-enamide], for which the IC50 in assay [1] and in assay [2] was 1 to 10 nM each time.

For the molecule `C=CC(=O)Nc1ccccc1Nc1nc(Nc2ccc(N3CCN(C)CC3)cc2)nc(N)c1Cl` [Compound 13, N-{2-[(6-amino-5-chloro-2-{[4-(4-methylpiperazin-1-yl)phenyl]amino}pyrimidin-4-yl)amino]phenyl}prop-2-enamide], the results for the IC50 in assay [1] and in assay [2] were 1 to 10 nM and 10 to 100 nM, respectively. For `C=CC(=O)Nc1ccccc1Nc1nc(Nc2ccc(N3CCN(C)CC3)cc2)nc2sccc12` [Compound 14, N-{2-[(2-{[4-(4-methylpiperazin-1-yl)phenyl]amino}thieno[2,3-d]pyrimidin-4-yl)amino]phenyl}prop-2-enamide], in that order: 10 to 100 nM and 100 to 1000 nM. For the molecule `C=CC(=O)Nc1ccccc1Nc1nc(Nc2ccc(N3CCN(C)CC3)cc2)ncc1OCc1ccc(C)cc1` [Compound 15, N-(2-((5-((4-methylbenzyl)oxy)-2-((4-(4-methylpiperazin-1-yl)phenyl)amino)pyrimidin-4-yl)amino)phenyl)acrylamide], the IC50 in assay [1] and in assay [2] was 1 to 10 nM in each case.

Turning to `C=CC(=O)Nc1ccccc1Nc1nc(Nc2ccc(N3CCN(C)CC3)cc2)ncc1OCc1c(C)cccc1Cl` [Compound 17, N-(2-((5-((2-chloro-6-methylbenzyl)oxy)-2-((4-(4-methylpiperazin-1-yl)phenyl)amino)pyrimidin-4-yl)amino)phenyl)acrylamide], in assay [2], the IC50 fell in the range of 1 to 10 nM. Turning to `C=CC(=O)Nc1ccccc1Nc1nc(Nc2ccc(N3CCN(C)CC3)cc2)ncc1C(=O)NCc1ccc(Oc2ccccc2)cc1` [Compound 19, 2-{[4-(4-methylpiperazin-1-yl)phenyl]amino}-N-[(4-phenoxyphenyl)methyl]-4-{[2-(prop-2-enamido)phenyl]amino}pyrimidine-5-carboxamide], the IC50 in assay [1] and in assay [2] was more than 10000 nM in each case. In the case of `C=CC(=O)Nc1ccccc1Nc1nc(Nc2ccc(N3CCN(C)CC3)cc2)ncc1C(=O)Nc1c(C)cccc1C` [Compound 28, N-(2,6-dimethylphenyl)-2-{[4-(4-methylpiperazin-1-yl)phenyl]amino}-4-{[2-(prop-2-enamido)phenyl]amino}pyrimidine-5-carboxamide], the figures for the IC50 in assay [1] and in assay [2] were less than 1 nM and 1 to 10 nM, respectively. On to `C=CC(=O)Nc1ccccc1Nc1nc(Nc2ccc(N3CCN(C)CC3)cc2)ncc1C(=O)Nc1c(C)cc(C(=O)O)cc1Cl` [Compound 30, 3-chloro-5-methyl-4-(2-{[4-(4-methylpiperazin-1-yl)phenyl]amino}-4-{[2-(prop-2-enamido)phenyl]amino}pyrimidine-5-amido)benzoic acid], for which the IC50 in assay [2] is more than 10000 nM.

`C=CC(=O)Nc1cccc(C)c1Nc1nc(Nc2ccc(N3CCN(C)CC3)cc2)ncc1Cl` [Compound 31, N-{2-[(5-chloro-2-{[4-(4-methylpiperazin-1-yl)phenyl]amino}pyrimidin-4-yl)amino]-3-methylphenyl}prop-2-enamide]: the results for the IC50 in assay [1] and in assay [2] were 100 to 1000 nM and 1000 to 10000 nM, respectively.

As to `C=CC(=O)Nc1ccc(C)cc1Nc1nc(Nc2ccc(N3CCN(C)CC3)cc2)ncc1Cl` [Compound 32, N-{2-[(5-chloro-2-{[4-(4-methylpiperazin-1-yl)phenyl]amino}pyrimidin-4-yl)amino]-4-methylphenyl}prop-2-enamide], the IC50 in assay [1] was in the range of 1 to 10 nM; in assay [2] it was 10 to 100 nM. The molecule `C=CC(=O)Nc1ccc(C)cc1Nc1nc(Nc2ccc(N3CCN(C)CC3)cc2)ncc1C(=O)Nc1c(C)cccc1Cl` [Compound 35, N-(2-chloro-6-methylphenyl)-4-{[5-methyl-2-(prop-2-enamido)phenyl]amino}-2-{[4-(4-methylpiperazin-1-yl)phenyl]amino}pyrimidine-5-carboxamide] returned an IC50 in assay [2] of 10 to 100 nM. Still for that read-out and setting: to `C=CC(=O)Nc1c(F)cccc1Nc1nc(Nc2ccc(N3CCN(C)CC3)cc2)ncc1Cl` [Compound 39, N-{2-[(5-chloro-2-{[4-(4-methylpiperazin-1-yl)phenyl]amino}pyrimidin-4-yl)amino]-6-fluorophenyl}prop-2-enamide] belongs 1 to 10 nM; to `C=CC(=O)Nc1cc(F)ccc1Nc1nc(Nc2ccc(N3CCN(C)CC3)cc2)ncc1Cl` [Compound 40, N-{2-[(5-chloro-2-{[4-(4-methylpiperazin-1-yl)phenyl]amino}pyrimidin-4-yl)amino]-5-fluorophenyl}prop-2-enamide], 1 to 10 nM. `C=CC(=O)Nc1cccc(F)c1Nc1nc(Nc2ccc(N3CCN(C)CC3)cc2)ncc1C(=O)Nc1c(C)cccc1Cl` [Compound 42, N-(2-chloro-6-methylphenyl)-4-{[2-fluoro-6-(prop-2-enamido)phenyl]amino}-2-{[4-(4-methylpiperazin-1-yl)phenyl]amino}pyrimidine-5-carboxamide]: the results for the IC50 in assay [1] and in assay [2] were less than 1 nM and 1 to 10 nM, respectively.

`C=CC(=O)Nc1ccc(C)cc1Nc1nc(Nc2ccc(N3CCN(C)CC3)cc2)nc2ccsc12` [Compound 46, N-{4-methyl-2-[(2-{[4-(4-methylpiperazin-1-yl)phenyl]amino}thieno[3,2-d]pyrimidin-4-yl)amino]phenyl}prop-2-enamide]: the IC50 in assay [1] was in the range of 10 to 100 nM; in assay [2] it was 100 to 1000 nM. Taken in the same sequence, the figures for `C=CC(=O)Nc1ccc(C)cc1Nc1nc(Nc2ccc(N3CCN(C)CC3)cc2)nc2ccoc12` [Compound 47, N-{4-methyl-2-[(2-{[4-(4-methylpiperazin-1-yl)phenyl]amino}furo [3,2-d]pyrimidin-4-yl)amino]phenyl}prop-2-enamide] were 10 to 100 nM and 100 to 1000 nM. `C=CC(=O)Nc1cccc(CNc2nc(Nc3ccc(N4CCN(C)CC4)cc3)ncc2C(=O)Nc2c(C)cccc2Cl)c1` [Compound 49] displayed an IC50 in assay [2] of 10 to 100 nM. Take `C=CC(=O)Nc1ccccc1CNc1nc(Nc2ccc(N3CCN(C)CC3)cc2)ncc1C(=O)Nc1c(C)cccc1Cl` [Compound 50]: the IC50 in assay [2] was 1 to 10 nM. In turn, `C=CC(=O)Nc1ccc(CNc2nc(Nc3ccc(N4CCN(C)CC4)cc3)ncc2C(=O)Nc2c(C)cccc2Cl)cc1` [Compound 51] returned an IC50 in assay [2] of 10 to 100 nM. Consider `C=CC(=O)Nc1ccccc1Nc1nc(Nc2ccc(N3CCN(C)CC3)cc2)ncc1Cl` [SM1-71, reference compound], for which the IC50 in assay [1] and in assay [2] was 1 to 10 nM each time.

Usually IC50 stands for the concentration that gives 50% inhibition. A lower IC50 goes with greater potency.

Source of the values: patent US12365664B2, “Small molecule inhibitors of SRC tyrosine kinase” (Dana-Farber Cancer Institute, Inc., priority 2019, dated 2025).
